Assay [1] deals with T1, human TSP1 (Homo sapiens, UniProt P07996). Nature of the assay: Interaction analysis by SPR (Biacore T200). To be noted: single-cycle kinetics, 25° C., KD from ka and kd. Format: binding. The method, then:
(Test Example 2) Interaction Analysis by SPR
Interaction analysis by SPR was performed using Biacore T200 (produced by GE Healthcare).
I. Immobilization of Recombinant-hTSP1
First, 500 μM NiCl2 was injected over an NTA-Chip (produced by GE Healthcare, BR100532) at a flow rate of 5 μL/min. for 1 minute to thereby activate NTA groups. Then, an EDC/NHS mixture was injected at a flow rate of 10 μL/min. for 7 minutes to thereby activate the carboxyl groups of dextran. Recombinant-hTSP1 was injected at a flow rate of 10 μL/min. for 7 minutes to immobilize the TSP1 on the substrate surfaces with activated NTA and carboxyl groups. Ethanolamine was injected at a flow rate of 10 μL/min. for 7 minutes to thereby deactivate unreacted, activated carboxyl groups.
The immobilization buffer used was prepared by diluting 10×HBS-P+(produced by GE Healthcare, BR100671) to 1-fold and adding 5 mM CaCl2.
The reagents EDC/NHS/ethanolamine used were included in the Amine-coupling kit (BR100050) commercially available from GE Healthcare.
The measurement buffer was prepared based on the following composition profile:
The measurement was performed in the following steps.
For the purpose of equilibrating substrate surfaces, the measurement buffer was injected under the following conditions:
contact time: 60 sec., dissociation time: 120 sec., flow rate: 50 μL/min., temperature: 25° C.
The injection under the same conditions was repeated five times to ensure equilibration.
Since Biacore T200 is highly responsive to change in DMSO concentrations, DMSO solutions were sequentially injected at concentrations of 4%, 4.4%, 4.8%, 5.2%, 5.6%, and 6% to correct for DMSO effects.
The method adopted for sample measurement was a single-cycle kinetics method which is effective for samples showing low dissociative behavior. The advantage of this method is that since sample solutions at different concentration regions are injected in the same cycle, the influence between different cycles in association with low dissociation can be ignored in the analysis.
A 3-fold diluted series of sample solutions were prepared in five concentrations (100, 33, 11, 3.7 and 1.2 nM), and sequentially injected at a flow rate of 50 μL/min. for 3 minutes in the order from lowest to highest concentration. After the highest concentration of diluted solution was injected, a dissociation time of 20 to 30 minutes was spent.
Before samples were measured, the measurement buffer was injected alone under the same conditions to establish a baseline.
The analysis was conducted using the evaluation software provided with Biacore T100 and T200. A DMSO correction curve obtained by solvent correction measurements was applied for the analysis. Kinetics fitting was done on the difference data obtained by subtracting the baseline data from sample measurement data.
KD values were calculated based on the association rate constant (ka) and dissociation rate constant (kd).
Target sequence in this assay (P07996 19-1170): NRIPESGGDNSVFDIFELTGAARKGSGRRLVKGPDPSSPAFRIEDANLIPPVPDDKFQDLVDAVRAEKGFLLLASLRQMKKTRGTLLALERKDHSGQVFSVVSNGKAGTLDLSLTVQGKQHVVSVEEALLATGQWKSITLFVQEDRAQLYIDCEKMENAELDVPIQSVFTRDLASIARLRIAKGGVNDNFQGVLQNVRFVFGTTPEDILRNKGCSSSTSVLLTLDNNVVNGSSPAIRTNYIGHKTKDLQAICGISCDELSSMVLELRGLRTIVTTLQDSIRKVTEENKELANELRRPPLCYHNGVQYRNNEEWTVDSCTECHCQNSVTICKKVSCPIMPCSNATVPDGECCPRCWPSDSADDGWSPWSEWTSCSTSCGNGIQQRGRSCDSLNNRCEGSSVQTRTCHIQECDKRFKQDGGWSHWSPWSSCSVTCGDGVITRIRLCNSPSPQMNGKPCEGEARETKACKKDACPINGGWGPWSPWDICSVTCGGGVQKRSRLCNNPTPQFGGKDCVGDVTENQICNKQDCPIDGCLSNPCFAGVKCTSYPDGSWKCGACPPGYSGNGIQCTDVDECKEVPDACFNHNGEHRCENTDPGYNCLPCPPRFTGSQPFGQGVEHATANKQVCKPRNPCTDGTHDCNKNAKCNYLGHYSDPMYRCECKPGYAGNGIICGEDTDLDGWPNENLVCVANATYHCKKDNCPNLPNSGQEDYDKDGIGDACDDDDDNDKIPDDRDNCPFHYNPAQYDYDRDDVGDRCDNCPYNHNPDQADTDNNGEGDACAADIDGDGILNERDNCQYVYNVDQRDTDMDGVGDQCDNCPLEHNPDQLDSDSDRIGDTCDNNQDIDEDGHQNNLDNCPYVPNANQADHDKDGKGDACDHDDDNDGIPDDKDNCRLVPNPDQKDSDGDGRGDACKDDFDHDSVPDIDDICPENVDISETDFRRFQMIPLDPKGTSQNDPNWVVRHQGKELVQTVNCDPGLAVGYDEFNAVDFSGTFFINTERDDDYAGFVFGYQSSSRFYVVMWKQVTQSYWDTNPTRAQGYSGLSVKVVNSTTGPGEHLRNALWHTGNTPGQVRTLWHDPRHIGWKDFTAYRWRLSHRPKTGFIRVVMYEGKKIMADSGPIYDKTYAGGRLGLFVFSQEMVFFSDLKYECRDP

The target of assay [2] is T1, human TSP1. As to the kind of experiment: Cell adhesion inhibition assay (HUVEC adhesion to TSP1-coated plate). Format: cell-based. To be noted: HUVEC adhesion to human platelet thrombospondin-coated plate, 2.5 hours, CellTiter-Glo; read-out: Cell adhesion IC50. A digest of the protocol: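 Plates coated overnight at 4 °C with 10 μg/mL human platelet TSP1 in TBS + 2 mM CaCl2, blocked with Lipidure, then preincubated 15–30 min with samples in DMEM/0.5% BSA. HUVECs (10000 cells/well) adhered for 2.5 h at 37 °C; adherent cells quantified by CellTiter-Glo luminescence and IC50 (nM) calculated.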
Target sequence in this assay (P07996 19-1170 limits assumed): as the sequence (P07996 19-1170) above

For a further assay, the system named is C57BL/6 mice. As to the kind of experiment: Blood flow improvement tests (femoral artery/vein ligation and excision, laser Doppler). The assay is classed as in vivo. To be noted: after 7 days of surgery; for % change (vs. vehicle): blood flow ratio ischemia/nonischemia; for %, ischemia/nonischemia: blood flow ratio of ischemic limb to non-ischemic limb, laser Doppler. The text has this: (Test Example 3) Blood Flow Improvement Tests
Seven to nine-week-old male C57BL/6 mice were purchased from Charles River Laboratories Japan Inc., and acclimated over one week by feeding with a FR-2 solid diet (produced by Funabashi Farm Co., Ltd.). The rearing facility switched between light and dark modes in a 12-hour cycle with light turning on at 7 a.m and turning off at 7 p.m. Under isofluorane inhalation anaesthesia, the left thighs of the mice were dissected, and the superficial femoral arteries and veins (from just below the deep femoral arteries to the popliteal artery and vein) were ligated and excised. After animal models were made, the test substances (Compounds 24, 28, 40 to 45, and 58) were each dissolved in a solution of 20 mM lactic acid and 5% (w/v) Lutrol, and intraperitoneally injected into mice once daily.
(Blood Flow Improvement Test 1)
Compound 24 (10 mg/kg)-treated group
(Blood Flow Improvement Test 2)
Compound 28 (10 mg/kg)-treated group
(Blood Flow Improvement Test 3)
Compound 40 (10 mg/kg)-treated group
Compound 41 (10 mg/kg)-treated group
(Blood Flow Improvement Test 4)
Compound 42 (10 mg/kg)-treated group
Compound 43 (10 mg/kg)-treated group
Compound 44 (10 mg/kg)-treated group
Compound 45 (10 mg/kg)-treated group
(Blood Flow Improvement Test 5)
Compound 58 (10 mg/kg)-treated group
Blood flows were measured in ischemic (left) and non-ischemic (right) limbs using a laser Doppler perfusion imager (LDPI; PIM III, Perimed, Inc.). Blood flow values were evaluated by the ratio of ischemic limb flow to non-ischemic limb flow.
Blood flow values from the mice were the lowest immediately after surgery and then gradually recovered. All of the test substances investigated in the animal models of this study improved blood flow recovery after surgery as compared to vehicle treatment. After 7 days of surgery, the blood flows in the test substance-treated groups were higher than in the vehicle-treated mice.

Positions of bridges follow the written chain, without caps; N, C: chain ends. Non-standard residues stand in square brackets, D forms with d. Residues, ends and D or L forms follow the SMILES beside them. 2Nal = N[C@@H](Cc1ccc2ccccc2c1)C(=O)O; Nle = CCCC[C@H](N)C(=O)O

For `CC(C)[C@@H]1NC(=O)[C@H](Cc2c[nH]c3ccccc23)NC(=O)[C@H](CCCCN)NC(=O)[C@H](C(C)C)NC(=O)[C@H](Cc2c[nH]c3ccccc23)NC(=O)[C@H](CC(N)=O)NC(=O)[C@H](CCCNC(=N)N)NC(=O)CNC(=O)[C@H](CO)NC(=O)[C@H](CCCNC(=N)N)NC(=O)[C@H](Cc2ccccc2)NC(=O)CSC[C@@H](C(N)=O)NC1=O` [Compound 6] ({CH2CO}-FRSGRNWVKWVC-NH2; thioether N-12), binding at human TSP1 [1] was put at a Kd of 0.44 nM. At human TSP1 [2], the IC50 was 27.3 nM.
`CC[C@H](C)[C@@H]1NC(=O)[C@H](Cc2ccccc2)NC(=O)CSC[C@@H](C(N)=O)NC(=O)[C@H](C(C)C)NC(=O)[C@H](Cc2c[nH]c3ccccc23)NC(=O)[C@H](CCCCN)NC(=O)[C@H](C(C)C)NC(=O)[C@H](Cc2c[nH]c3ccccc23)NC(=O)[C@H](CC(N)=O)NC(=O)[C@H](CCCCN)NC(=O)CNC(=O)[C@H](CO)NC1=O` [Compound 7] ({CH2CO}-FISGKNWVKWVC-NH2; thioether N-12) displayed a dissociation constant (Kd) on human TSP1 [1] of 0.12 nM. This counts as sub-nanomolar.
For the molecule `CC[C@H](C)[C@@H]1NC(=O)[C@H](Cc2ccc3ccccc3c2)NC(=O)CSC[C@@H](C(N)=O)NC(=O)[C@H](C(C)C)NC(=O)[C@H](Cc2c[nH]c3ccccc23)NC(=O)[C@H](CCCCN)NC(=O)[C@H](C(C)C)NC(=O)[C@H](Cc2c[nH]c3ccccc23)NC(=O)[C@H](CC(N)=O)NC(=O)[C@H](CCCNC(=N)N)NC(=O)CNC(=O)[C@H](CO)NC1=O` [Compound 24] ({CH2CO}-[2Nal]ISGRNWVKWVC-NH2; thioether N-12), at human TSP1 [1], binding was put at a Kd of 0.12 nM. Moreover, in the assay with C57BL/6 mice, the “% change (vs. vehicle)” value is recorded as 4.9% and the “%, ischemia/nonischemia” value is listed as 41.20%.
On the same counts, the results for `CC[C@H](C)[C@@H]1NC(=O)[C@H](Cc2ccc3ccccc3c2)NC(=O)CSC[C@@H](C(N)=O)NC(=O)[C@H](C(C)C)NC(=O)[C@H](Cc2c[nH]c3ccccc23)NC(=O)[C@H](CCCCN)NC(=O)[C@H](C(C)C)NC(=O)[C@H](Cc2c[nH]c3ccccc23)NC(=O)[C@H](CC(N)=O)NC(=O)[C@H](Cc2c[nH]cn2)NC(=O)CNC(=O)[C@H](CO)NC1=O` [Compound 42] ({CH2CO}-[2Nal]ISGHNWVKWVC-NH2; thioether N-12) are 0.44 nM, 27.0% and 47.40%.
In turn, `CC[C@H](C)[C@@H]1NC(=O)[C@H](Cc2ccc3ccccc3c2)NC(=O)CSC[C@@H](C(N)=O)NC(=O)[C@H](C(C)C)NC(=O)[C@H](Cc2c[nH]c3ccccc23)NC(=O)[C@H](CCCCN)NC(=O)[C@H](C(C)C)NC(=O)[C@H](Cc2c[nH]c3ccccc23)NC(=O)[C@H](CC(N)=O)NC(=O)[C@H](CCCCN)NC(=O)CNC(=O)[C@H](CO)NC1=O` [Compound 43] ({CH2CO}-[2Nal]ISGKNWVKWVC-NH2; thioether N-12) yielded a Kd at human TSP1 [1] of 0.13 nM. Moreover, in the assay with C57BL/6 mice, the “% change (vs. vehicle)” value worked out at 30.9% and the “%, ischemia/nonischemia” value was 48.86%. Besides, the IC50 on human TSP1 [2] was 9.2 nM.
On to `CC[C@H](C)[C@@H]1NC(=O)[C@H](Cc2ccc3ccccc3c2)NC(=O)CSC[C@@H](C(N)=O)NC(=O)[C@H](C(C)C)NC(=O)[C@H](Cc2c[nH]c3ccccc23)NC(=O)[C@H](CCCCN)NC(=O)[C@H](C(C)C)NC(=O)[C@H](Cc2c[nH]c3ccccc23)NC(=O)[C@H](CC(N)=O)NC(=O)[C@H](CO)NC(=O)CNC(=O)[C@H](CO)NC1=O` [Compound 44] ({CH2CO}-[2Nal]ISGSNWVKWVC-NH2; thioether N-12), for which, in the assay with C57BL/6 mice, the “% change (vs. vehicle)” value is 10.5% and the “%, ischemia/nonischemia” value is recorded as 41.25%. At human TSP1 [2], the IC50 is 30.3 nM.
In turn, `CCCC[C@@H]1NC(=O)[C@H](Cc2c[nH]c3ccccc23)NC(=O)[C@H](CC(=O)O)NC(=O)[C@H](CCCNC(=N)N)NC(=O)CNC(=O)[C@H](CO)NC(=O)[C@H]([C@@H](C)CC)NC(=O)[C@H](Cc2ccc3ccccc3c2)NC(=O)CSC[C@@H](C(N)=O)NC(=O)[C@H](C(C)C)NC(=O)[C@H](Cc2c[nH]c3ccccc23)NC(=O)[C@H](CCCCN)NC1=O` [Compound 45] ({CH2CO}-[2Nal]ISGRDW[Nle]KWVC-NH2; thioether N-12) gave a Kd on human TSP1 [1] of 0.13 nM. In addition, in the assay on C57BL/6 mice, the “% change (vs. vehicle)” value is listed as 76.0% and the “%, ischemia/nonischemia” value came to 65.70%.
With `CCCC[C@@H]1NC(=O)[C@H](Cc2c[nH]c3ccccc23)NC(=O)[C@H](CC(=O)O)NC(=O)[C@H](CCCCN)NC(=O)CNC(=O)[C@H](CO)NC(=O)[C@H]([C@@H](C)CC)NC(=O)[C@H](Cc2ccc3ccccc3c2)NC(=O)CSC[C@@H](C(N)=O)NC(=O)[C@H](C(C)C)NC(=O)[C@H](Cc2c[nH]c3ccccc23)NC(=O)[C@H](CCCNC(=N)N)NC1=O` [Compound 58] ({CH2CO}-[2Nal]ISGKDW[Nle]RWVC-NH2; thioether N-12), on human TSP1 [1], the dissociation constant Kd is 0.091 nM. Further, in the assay on C57BL/6 mice, the “% change (vs. vehicle)” value came out at 85.5% and the “%, ischemia/nonischemia” value was determined as 69.00%. Further, the 50% inhibitory concentration (IC50) at human TSP1 [2] was determined as 15.9 nM.

Source of the values: US11149066B2, “Thrombospondin 1-binding peptide” (DAIICHI SANKYO COMPANY, LIMITED, priority 2016, dated 2021).
